Key:
Assay in all cases: relative viability (nuclei count vs DMSO), 5 days (fraction); higher = more cells survive
Selisistat + AZD7762 = compound: C1CC(C2=C(C1)C3=C(N2)C=CC(=C3)Cl)C(=O)N [Selisistat] + NC(=O)Nc1cc(-c2cccc(F)c2)sc1C(=O)N[C@H]1CCCNC1 [AZD7762] (partner 0.2 µM)
Method in brief: (§1)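 Relative viability is defined as nuclei in treated wells over nuclei in vehicle wells. Duplicate plates were run and medians reported. Lung cancer cell lines in 1536-well plates were dosed by pin tool one day after seeding, with one drug or with a fixed anchor-drug dose plus five library-drug doses (not always all listed) in √10 steps, and nuclei were counted after 5 days.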

Serdemetan + Phenformin = compound: c1ccc2c(CCNc3ccc(Nc4ccncc4)cc3)c[nH]c2c1 [Serdemetan] + N=C(N)NC(=N)NCCc1ccccc1 [Phenformin] (partner 250 µM)
Method in brief: as §1

Selisistat + Pictilisib = compound: C1CC(C2=C(C1)C3=C(N2)C=CC(=C3)Cl)C(=O)N [Selisistat] + CS(=O)(=O)N1CCN(Cc2cc3nc(-c4cccc5[nH]ncc45)nc(N4CCOCC4)c3s2)CC1 [Pictilisib] (partner 1 µM)
Method in brief: as §1

Selisistat + Trametinib = compound: C1CC(C2=C(C1)C3=C(N2)C=CC(=C3)Cl)C(=O)N [Selisistat] + CC(=O)Nc1cccc(-n2c(=O)n(C3CC3)c(=O)c3c(Nc4ccc(I)cc4F)n(C)c(=O)c(C)c32)c1 [Trametinib] (partner 0.02 µM)
Method in brief: as §1

| Cell Line | relative viability (Selisistat + AZD7762; first compound 0.4 µM) | relative viability (Selisistat + AZD7762; first compound 1.265 µM) | relative viability (Selisistat + AZD7762; first compound 4 µM) | relative viability (Selisistat + AZD7762; first compound 12.65 µM) | relative viability (Selisistat + AZD7762; first compound 40 µM) | relative viability (Serdemetan + Phenformin; first compound 0.04 µM) | relative viability (Serdemetan + Phenformin; first compound 0.1265 µM) | relative viability (Serdemetan + Phenformin; first compound 0.4 µM) | relative viability (Serdemetan + Phenformin; first compound 4 µM) | relative viability (Selisistat + Pictilisib; first compound 0.4 µM) | relative viability (Selisistat + Pictilisib; first compound 1.265 µM) | relative viability (Selisistat + Pictilisib; first compound 4 µM) | relative viability (Selisistat + Pictilisib; first compound 12.65 µM) | relative viability (Selisistat + Pictilisib; first compound 40 µM) | relative viability (Selisistat + Trametinib; first compound 0.4 µM) | relative viability (Selisistat + Trametinib; first compound 1.265 µM) | relative viability (Selisistat + Trametinib; first compound 4 µM) | relative viability (Selisistat + Trametinib; first compound 12.65 µM) | relative viability (Selisistat + Trametinib; first compound 40 µM) | relative viability (Serdemetan + Phenformin; first compound 1.265 µM) |
| --- | --- | --- | --- | --- | --- | --- | --- | --- | --- | --- | --- | --- | --- | --- | --- | --- | --- | --- | --- | --- |
| NCI-H1975 | 0.684 | 0.661 | 0.581 | 0.647 | 0.646 | 0.401 | 0.416 | 0.427 | 0.415 | 0.322 | 0.315 | 0.236 | 0.301 | 0.265 | 0.371 | 0.358 | 0.262 | 0.329 | 0.33 | – |
| CAL-12T | 0.589 | 0.626 | 0.566 | 0.605 | 0.732 | 0.508 | 0.632 | 0.502 | 0.561 | 0.384 | 0.388 | – | 0.6 | 0.314 | 0.375 | 0.365 | 0.35 | 0.311 | 0.341 | 0.562 |
| NCI-H1623 | – | – | – | – | – | 0.618 | 0.617 | 0.37 | 0.739 | – | – | – | – | – | – | – | – | – | – | 0.476 |
| HCC-44 | 1 | 1.04 | 1.1 | 1.02 | 1.15 | 0.21 | 0.236 | 0.21 | 0.213 | 0.633 | 0.551 | 0.595 | 0.599 | 0.436 | 1.1 | 1.22 | 1.13 | 1.07 | 1.05 | 0.136 |
| EKVX | 0.682 | 0.732 | 0.705 | 0.699 | 0.802 | 0.225 | 0.243 | 0.14 | 0.241 | 0.451 | 0.432 | 0.39 | 0.442 | 0.53 | 0.383 | 0.392 | 0.324 | 0.379 | 0.48 | – |
| NCI-H1651 | 0.426 | 0.491 | 0.462 | 0.521 | 0.523 | 0.283 | 0.319 | 0.224 | 0.213 | 0.595 | 0.596 | 0.48 | 0.553 | 0.516 | 0.855 | 0.871 | 0.799 | 0.842 | 0.817 | 0.205 |
| NCI-H1944 | 0.523 | 0.509 | 0.428 | 0.653 | 0.586 | 0.197 | 0.213 | 0.202 | 0.154 | 0.335 | 0.363 | – | 0.346 | 0.395 | 0.437 | 0.383 | 0.455 | 0.44 | 0.446 | 0.128 |
| NCI-H1703 | 0.116 | 0.114 | – | 0.139 | 0.136 | – | – | – | – | 0.232 | 0.217 | 0.242 | 0.267 | 0.233 | – | – | – | – | – | – |
| Calu-6 | – | – | – | – | – | – | – | – | – | 0.867 | 0.886 | 0.895 | 0.872 | 0.925 | – | – | – | – | – | – |
| EBC-1 | – | – | – | – | – | – | – | – | – | 0.373 | 0.286 | 0.46 | 0.454 | 0.389 | – | – | – | – | – | – |
| SW 1573 | – | – | – | – | – | 0.36 | 0.334 | 0.289 | 0.245 | 0.557 | 0.594 | 0.426 | 0.419 | 0.513 | 0.615 | 0.505 | – | 0.563 | 0.565 | 0.211 |
| A-427 | 0.742 | 0.785 | – | 0.725 | 0.757 | 0.29 | 0.279 | 0.273 | 0.198 | 0.625 | 0.622 | 0.327 | 0.656 | 0.73 | 0.842 | 0.801 | – | 0.776 | 0.775 | 0.189 |
| NCI-H2347 | 0.733 | 0.66 | – | 0.774 | 0.795 | 0.52 | 0.382 | 0.366 | 0.289 | 0.374 | 0.714 | 0.294 | 0.541 | 0.56 | 0.266 | 0.245 | – | 0.298 | 0.285 | 0.3 |
| NCI-H1355 | 0.774 | 0.753 | 0.717 | 0.819 | 0.814 | 0.447 | 0.444 | 0.466 | 0.432 | 0.406 | 0.427 | – | 0.5 | 0.514 | 0.422 | 0.462 | 0.422 | 0.438 | 0.43 | 0.332 |
| NCI-H358 | 0.532 | 0.589 | – | 0.518 | 0.639 | 0.302 | 0.324 | 0.273 | 0.308 | 0.402 | 0.361 | – | 0.408 | 0.395 | 0.146 | 0.16 | 0.122 | 0.129 | 0.122 | 0.286 |
| PC-3 [JPC-3] | 0.834 | 0.861 | – | 0.744 | 0.695 | 0.475 | 0.494 | 0.486 | 0.532 | 0.753 | 0.749 | 0.449 | 0.631 | 0.696 | 0.805 | 0.664 | – | 0.74 | 0.695 | 0.482 |
| NCI-H2228 | – | – | – | – | – | 0.38 | 0.269 | 0.362 | 0.21 | 0.476 | 0.398 | 0.343 | 0.551 | 0.557 | 0.666 | 0.362 | 0.564 | 0.537 | 0.372 | 0.238 |
| HOP-62 | 0.62 | 0.568 | 0.696 | 0.633 | 1.2 | 0.718 | 0.63 | 0.721 | 0.583 | 0.865 | 0.651 | 0.449 | 0.619 | 0.935 | 0.431 | 0.394 | 0.362 | 0.401 | 0.408 | 0.548 |
| HARA | 0.237 | 0.342 | – | 0.364 | 0.219 | 0.466 | 0.457 | 0.499 | 0.304 | 0.492 | 0.366 | 0.348 | 0.307 | 0.401 | 0.659 | 0.962 | – | 0.509 | 0.377 | 0.257 |
| NCI-H838 | 0.933 | 0.91 | 0.958 | 0.971 | 1.03 | 0.564 | 0.551 | 0.544 | 0.641 | 0.48 | 0.514 | 0.39 | 0.489 | 0.446 | 0.592 | 0.482 | 0.511 | 0.516 | 0.507 | 0.427 |

From the supplement of paper PMC10307832
